From PubChem BioAssay (NCI)
“And” between values parts separate entries of the source, which are not always exact repeats. Equal entries are not always repeated.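 1) Cells in 96-well plates. 2) Compound, 48 h, 5 concentrations. 3) Linear interpolation between surrounding doses. 4) Unreached endpoint = highest concentration. Here, GI50 denotes the concentration required for 50% inhibition of growth. Definition used: TGI = concentration required for complete inhibition of growth.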

Experiments:
Assay in all cases: NCI tumour cell line growth inhibition, 48 h
[1] = system: SK-OV-3 ovarian
[2] = system: EKVX NSCLC
[3] = system: OVCAR-3 ovarian
[4] = system: UACC-257 melanoma
[5] = system: MALME-3M melanoma
[6] = system: IGROV1 ovarian
[7] = system: NCI-H226 lung
[8] = system: PC-3 prostate
[9] = system: NCI/ADR-RES ovarian
[10] = system: HS 578T breast

Structure (SMILES) | TGI [1] [µM] | TGI [2] [µM] | TGI [3] [µM] | TGI [4] [µM] | TGI [5] [µM] | TGI [6] [µM] | TGI [7] | TGI [8] [µM] | GI50 [1] [µM] | GI50 [9] [µM] | TGI [9] [µM] | GI50 [2] | GI50 [3] [µM] | GI50 [4] [µM] | GI50 [8] [µM] | GI50 [10] [µM] | TGI [10] [µM] | GI50 [5] [µM] | GI50 [6] [µM] | GI50 [7] [µM]
OCc1cc2c(cn1)[nH]c1ccc(NCc3ccccc3)cc12 | 86.2 | > 100 | 69.6 | 59.9 | > 100 | > 100 | 54.4 µM | – | – | – | – | – | – | – | – | – | – | – | – | –
O=[N+]([O-])c1ccc(Cl)c2c([N+](=O)[O-])cccc12 | 7.48 | > 10 | > 10 | – | > 10 | > 10 | – | > 10 | – | – | – | – | – | – | – | – | – | – | – | –
COc1ccc(OC)c(/C=C/c2nc(=S)n(-c3ccc(Cl)cc3)[nH]2)c1 | > 100 | > 100 | 21.4 | > 100 | > 100 | > 100 | – | > 100 | 9.4 | 3.63 | > 100 | 30 µM | 3.34 | > 100 | 8.91 | 3.1 | > 100 | 70.6 | 4.38 | –
O=C(NC12CC3CCC1CC(C3)C2)[C@@H]1CCCN1C(=O)OCc1ccccc1 (stereo partly drawn) | > 100 | > 100 | > 100 | > 100 | > 100 | > 100 | > 100 µM | – | – | – | – | – | – | – | – | – | – | – | – | –
O=C1CC(c2ccccc2)Oc2ccccc21 (stereo not drawn) | > 100 | > 100 | – | > 100 | – | > 100 | > 100 µM | > 100 | – | – | > 100 | – | – | – | – | – | > 100 | – | – | –
COc1cc2oc(-c3ccc(O)cc3)cc(=O)c2c(O)c1C1OC(CO)C(O)C(O)C1O (stereo not drawn) | > 100 | > 100 | > 100 | > 100 | > 100 | > 100 | > 100 µM | – | – | – | – | – | – | – | – | – | – | – | – | –
COC(=O)/C=C(/C(=O)OC)C1(C)c2cc(C(=O)OC)c(C(=O)OC)c(N)c2C(=N)N1c1ccccc1 (stereo not drawn) | > 100 | > 100 | 38.3 | – | 32.7 | 76.8 | 89.9 µM | – | – | – | – | – | – | – | – | – | – | – | – | –
C[C@]12Cc3cn[nH]c3C(=O)C1CC[C@@H]1C2CC[C@@]2(C)C1CC[C@@H]2O (stereo partly drawn) | > 100 | > 100 | > 100 | > 100 | > 100 | > 100 | > 100 µM | – | – | – | – | – | – | – | – | – | – | – | – | –
c1ccc2c(c1)SCCCS2 | > 100 | > 100 | > 100 | > 100 | – | > 100 | – | > 100 | – | – | > 100 | – | – | – | – | – | – | – | – | –
COc1cc(CNc2nc3cc(N)cc(N)c3nc2-c2ccccc2)cc(OC)c1 | 54.2 | 8.91 | 4.52 | > 100 | 33.8 | 55.7 | – | 14.4 | 15.1 | 5.47 | 33.2 | 2.8 µM | 1.86 | – | 3.05 | 8.53 | > 100 | 4.86 | 8.62 | –
O=C1/C(=C\c2ccccc2)CN(C(=O)CCN2CCCCC2)C/C1=C/c1ccccc1 | 9.77 | 10.6 | 6.5 | 3.52 | 5.44 | 4.48 | 16.5 µM | 3.25 | – | – | – | – | – | – | – | – | 5.87 | – | – | –
N#C/C(=C\c1cc(OCc2ccccc2)c(OCc2ccccc2)cn1)C(N)=O | > 100 | > 100 | > 100 | > 100 | > 100 | > 100 | > 100 µM | – | – | – | – | – | – | – | – | – | – | – | – | –
O=[N+]([O-])c1ccccc1C1SCc2nc3ccccc3n21 (stereo not drawn) | > 100 | > 100 | – | > 100 | > 100 | > 100 | – | – | – | – | – | – | – | – | – | – | – | – | – | –
O=C(NCCNCCO)c1ccc2c(c1)oc1cc3ccccc3c(=O)n12 | > 50 | > 50 | – | > 50 | > 50 | > 50 | – | > 50 | > 50 | > 50 | > 50 | 37.8 µM | – | 19.6 | 35.5 | – | – | 19.7 | 16.5 | –
COC(=O)C1C(C(=O)OC)C2C(=O)C3C(C(=O)OC)C(C(=O)OC)C3C(=O)C12 (stereo not drawn) | > 100 | > 100 | – | > 100 | > 100 | > 100 | > 100 µM | – | – | – | – | – | – | – | – | – | – | – | – | –
COC(=O)OC1C(O[C@H]2C[C@H]3[C@@H]4CC=C5C[C@@H](O)CC[C@]5(C)[C@H]4CC[C@]3(C)[C@H]2[C@H](C)C(=O)CCC(C)C)OCC(O)C1OC1OCC(O)C(O)C1OC(=O)c1ccc(OC)cc1 (stereo partly drawn) | 0.611 | 2.55 | 16.8 | 0.0562 | 0.769 | > 27.5 | – | 0.29 | 0.0073 | > 27.5 | > 27.5 | 0.0196 µM | 0.345 | 0.00543 | 0.00436 | < 0.00275 | 0.0416 | 0.0184 | 0.0106 | –
COc1cc(Nc2cnc3ccc(C(F)(F)F)cc3n2)cc(OC)c1OC | – | > 100 | > 100 | > 100 | > 100 | – | > 100 µM | – | – | – | – | – | – | – | – | – | – | – | – | –
CC1=NN(C(=O)Cc2ccccc2)C(=O)/C1=C\c1ccc(O)cc1 | > 100 | > 100 | > 100 | > 100 | > 100 | > 100 | > 100 µM | – | – | – | – | – | – | – | – | – | – | – | – | –
COC(=O)CCC(NC(=S)N/N=C/c1cccs1)C(=O)OC (stereo not drawn) | > 100 | > 100 | > 100 | > 100 | > 100 | > 100 | > 100 µM | – | – | – | – | – | – | – | – | – | – | – | – | –
N#Cc1nc2c(S(=O)(=O)c3ccc(Cl)cc3)c(N)n(Nc3cccc(Cl)c3)c2nc1C#N | – | – | 0.0132 | 37.2 | 0.33 | 0.179 | 0.322 µM and 0.302 µM | – | 0.0858 | 0.0505 | > 100 | 0.0693 µM and 0.0266 µM | – | – | 0.00279 | – | – | 0.0532 | 0.0385 | 0.106
O=C1[C@@H]2C(c3c(Cl)cccc3Cl)=NO[C@@H]2C(=O)N1c1ccc(Cc2ccc(N3C(=O)[C@H]4C(c5c(Cl)cccc5Cl)=NO[C@H]4C3=O)cc2)cc1 | > 100 | > 100 | > 100 | > 100 | > 100 | > 100 | > 100 µM | – | – | – | – | – | – | – | – | – | – | – | – | –
COc1ccc(CNc2cnc3ccc(N)cc3n2)cc1 | – | > 100 | > 100 | > 100 | > 100 | – | > 100 µM | – | – | – | – | – | – | – | – | – | – | – | – | –
Cc1cc([N+](=O)[O-])c(C)c2c1[nH]c1ccc(Cl)cc12 | – | > 100 | > 100 | > 100 | > 100 | – | > 100 µM | – | – | – | – | – | – | – | – | – | – | – | – | –
